Data: patent US20170320939A1, “COLL2-1 PEPTIDE AND ITS NITRATED FORM AS THERAPEUTIC TARGETS FOR OSTEOARTHRITIS TREATMENT” (Université de Liège, priority 2014, published 2017)

What was measured:
IL-8 = IL-8 mRNA expression by Real Time PCR in OA synovial fibroblast cells; assay type: cell-based, human; conditions: 24 hours
Protocol: 1.3 Treatment of synovial fibroblast cells. Cells were seeded into a six-well plate at the density of 2×10^5 cells/well in 2 ml of CM. When the cells reached confluence, the CM was replaced with 1% serum medium for 24 h to keep the cells quiescent. Cells were incubated for 24 hours with or without peptides Coll2-1 (^108HRGYPGLDG^116; 0.45 and 4.5 nmol) or Coll2-1NO2 (^108HRGYPGLDG-NO2^116; 4 and 40 pmol) at a range of concentrations found in the blood of osteoarthritic patients.
1.4 RNA extraction and Real Time Reverse Transcriptase-Polymerase Chain Reaction (RT PCR). Total RNA were extracted using the RNeasy Mini Kit (Qiagen, Netherlands) and were reverse transcribed with SuperScript III Reverse Transcriptase (Invitrogen, Belgium) according to the manufacturer's instructions. The cDNAs were quantified by real-time quantitative PCR using the Rotor Gene instrument (Qiagen, Venlo, Netherlands) and the SYBR Premix Ex Taq kit (Takara, Verviers, Belgium). The level of gene expression was determined by interpolation with a standard curve. To standardize mRNA levels, HPRT, a house keeping gene, was amplified as an internal control. The oligonucleotide primers sequences were as follow: HPRT forward, 5′-[…]-3′ (SEQ ID NO: 2); HPRT reverse, 5′-TGCCTGACCAAGGAAAGC-3′ (SEQ ID NO: 3); TSP-1 forward, 5′-CAGACCGCATTGGAGATAC-3′ (SEQ ID NO: 4); TSP-1 reverse, 5′-[…]-3′ (SEQ ID NO: 5); VEGF forward, 5′-TGCCTTGCTGCTCTAC-3′ (SEQ ID NO: 6); VEGF reverse, 5′-CACACAGGATGGCTTGAA-3′ (SEQ ID NO: 7); IL-6 forward, 5′-AAACAAATTCGGTACATCCTCG-3′ (SEQ ID NO: 8); IL-6 reverse, 5′-CCA GGC AAG TCT CCT CAT-3′ (SEQ ID NO: 9); IL-8 forward, 5′-GGAACCATCTCACTGTGTGTAA-3′ (SEQ ID NO: 10); IL-8 reverse, 5′-TGGAAAGGTTTGGAGTATGTCT-3′ (SEQ ID NO: 11).

female Lewis rats = experiment: In-vivo study, I.A. injection compared to SCW (streptococcal cell walls) model; conditions: for global histological score, right knee (injected): not significant
Protocol: An in-vivo study was performed to evaluate the potential immunizing effect of Coll2-1 peptide. This effect was evaluated in comparison with two validated models of rheumatoid arthritis: CIA (Collagen induced arthritis) and SCW (Streptococcal cell walls). The peptide has been injected once subcutaneous, at the base of the tail (S.C.—evaluation of systemic inflammation) or intra-articular (I.A.—evaluation of mono-articular inflammation) in female Lewis rats. Naïve controls (saline) were considered. Animals were euthanized 21 or 28 days after injection.
All animals (n=108 females; 96.0-129.7 gr) included in the study were identified by a unique chip. They were randomly distributed into 8 study groups (n=16/group except nave controls n=6/group, n=8/each time point) before induction (DO) based on their body weight (FIG. 1). • Injected controls (2 groups) • Group 1: bovin type II collagen (CIA)—S.C. (n=16) • Group 2: streptococcal cell wail (SCW)—I.A. (n=16) • Test groups (4 groups) • Group 3: Peptide dose 200 μg/100 μl—S.C. (n=16) • Group 4: Peptide dose 20 μg/100 μl—S.C. (n=16) • Group 5: Peptide dose 5 μg/50 μl—I.A. (n=16) • Group 6: Peptide dose 0.5 μg/50 μl—I.A. (n=16) • Naïve controls (2 groups) • Group 7: saline S.C. (n=6) • Group 8: saline I.A. (n=6)
Two injection ways were chosen to evaluate the potential effect of the peptide: intra-articular (I.A.) and subcutaneous (S.C.), two route classically used in the art.
Coll2-1 peptide was administered either I.A. under a 50 μL volume into the right knee or S.C. under a 100 μL volume at the base of the tail.
SCW was administered I.A. into the right knee under a 50 μL volume. Bovine type II collagen (CIA) was administered under 100 μL volume at the base of the tail.
Two doses of the Coll2-1 peptide were tested in both conditions.
It was administered I.A. at 5 and 0.5 μg under 50 μL
Coll2-1 peptide was administered once (DO).
Joint was considered arthritic when significant signs of redness and/or swelling was noted. Each paw was evaluated with a visual score (0-3) • 0: normal, no joint inflammation • 1: large joint inflammation • 2: medium joint inflammation • 3: small joint (distal) inflammation
A set of 4 values were recorded on each evaluation day. The 4 values were summed for analysis.
Right and left knees diameter were measured using a digital caliper.
Animals were euthanized 21 or 28 days after injection (D0). They were anesthetized with a subcutaneous injection of a Ketamin/Medetomidine mix and further euthanized by exsanguination.
Both entire knees from each animal were processed for histological analysis, They were decalcified in a HCl/EDTA mix (DC2, Qpath, VWR Belgium) for the appropriate time before inclusion in paraffin. Three frontal sections (5 μm) of each compartment were done 200 μm apart in the weight bearing zone using a microtome. Slides were stained according to a standard Safranin-O/Fast green protocol.
Slides were evaluated under a light microscope. Each slide was score for: • Infiltration of inflammatory cells in synovial tissue (0-3) • Inflammatory cells in the joint cavity (exudate) (0-3) • Cartilage proteoglycan depletion (0-3) • Loss of articular cartilage (0-3) • Bone erosion (0-3).
Infiltration of inflammatory cells in synovial tissue and inflammatory cells in the joint cavity were considered together (sum of the scores) as inflammatory parameters for the analysis of the detailed criteria.
Statistical analysis was performed with the appropriate test using GraphPad. • Visual score and evaluations (knee diameter measurements) were analyzed with a two way ANOVA followed, if positive, by Tukey's multiple comparison test. Graphs represented the mean of each group at each evaluated time point. • Histological scores were analyzed with a Kruskal Wallis for non-parametric values followed, if positive, by a Dunn's multiple comparison test. Graphs presented as box and whisker plots. Exact p values were provided and asterisks representation were also performed.

HRGYPGLDG [Coll2-1]
IL8 gene expression (IL-8; Coll2-1 at 0.45 nmol): dose-dependently increased | IL8 gene expression (IL-8; Coll2-1 at 4.5 nmol): dose-dependently increased | IL-8 expression (IL-8; increasing concentrations: Coll2-1 (0.45 and 4.5 nmol) or Coll2-1NO2 (4 and 40 pmol)): increased | cartilage degradation score, left knee (female Lewis rats; Coll2-1 0.5 μg I.A. (Gr6)): significant increase | inflammatory score, left knee, versus Gr8 (female Lewis rats; Coll2-1 0.5 μg I.A. (Gr6)): significant increase | matrix proteoglycan loss score, left knee, versus Gr8 (female Lewis rats; Coll2-1 0.5 μg I.A. (Gr6)): significant increase | right knee diameter, difference versus Gr8 (saline) (female Lewis rats; Coll2-1 0.5 μg I.A. (Gr6), D3): statistically different | arthritis visual score, difference versus saline (Gr8) (female Lewis rats; Coll2-1 0.5 μg I.A. (Gr6), D28): statistically different | cartilage degradation score, right knee, versus Gr8 (female Lewis rats; Coll2-1 0.5 μg I.A. (Gr6), D28): significant increase | global histological score, left knee, difference versus Gr2 (female Lewis rats; Coll2-1 0.5 μg I.A. (Gr6), D28): not significant except for Gr6 | global histological score, left knee, difference versus Gr8 (female Lewis rats; Coll2-1 0.5 μg I.A. (Gr6), D28): not significant except for Gr6 | global histological score, right knee (injected) (female Lewis rats; Coll2-1 0.5 μg I.A. (Gr6)): intermediate between Gr8 (saline) and Gr2 (SCW) | global histological score, left knee, differences (female Lewis rats; Coll2-1 5 μg I.A. (Gr5)): not significant | arthritis visual score, difference versus Gr 6 (Coll2-1 peptide 0.5 μg) (female Lewis rats; Coll2-1 5 μg I.A. (Gr5), D17): statistically different | arthritis visual score, difference versus saline (Gr8) (female Lewis rats; Coll2-1 5 μg I.A. (Gr5), D17): statistically different | left knee diameter, difference versus Gr2 (SCW) (female Lewis rats; Coll2-1 5 μg I.A. (Gr5), D17): statistically different | left knee diameter, difference versus Gr8 (saline) (female Lewis rats; Coll2-1 5 μg I.A. (Gr5), D17): statistically different | right knee diameter, difference versus Gr8 (saline) (female Lewis rats; Coll2-1 5 μg I.A. (Gr5), D17): statistically significance | arthritis visual score, difference versus SCW (Gr2) (female Lewis rats; Coll2-1 5 μg I.A. (Gr5), D24): statistically different | global histological score, right knee (injected) (female Lewis rats; Coll2-1 5 μg I.A. (Gr5)): intermediate between Gr8 (saline) and Gr2 (SCW) | right knee diameter, difference Gr5 versus Gr6 (female Lewis rats; Coll2-1 5 μg versus 0.5 μg I.A., D17): statistically different | inflammatory criteria, right knee (female Lewis rats; Coll2-1 peptide I.A., D28, not statistically significant): intermediate increase | histological score (conclusion) (female Lewis rats; SCW arthritis model, I.A. injection, D21 and D28): intermediate scores | arthritis visual score (female Lewis rats; single I.A. injection into the right knee, D0 to D28): induced an increase
